Assay results published in the supplement of paper PMC10307832.

Legend:
Test in all cases: relative viability (nuclei count vs DMSO), 5 days (fraction); higher = more cells survive
A-427 = tested on: A-427
Procedure, shortened: (§1)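 Lung cancer cell lines, seeded in 1536-well plates, were treated the following day by pin tool with a single drug or with five library-drug doses (not always all listed) in √10 steps on top of a fixed anchor-drug dose. Cells were fixed and nuclei stained in one step after 5 days, and nuclei were counted. Relative viability is the nuclei count for treated wells divided by that for vehicle wells, reported as medians of duplicate plates.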

ABC-1 = tested on: ABC-1
Procedure, shortened: as §1

EPLC-272H = tested on: EPLC-272H
Procedure, shortened: as §1

HCC-15 = tested on: HCC-15
Procedure, shortened: as §1

LC-2-ad = tested on: LC-2-ad
Procedure, shortened: as §1

LK-2 = tested on: LK-2
Procedure, shortened: as §1

NCI-H1734 = tested on: NCI-H1734
Procedure, shortened: as §1

NCI-H1793 = tested on: NCI-H1793
Procedure, shortened: as §1

NCI-H1915 = tested on: NCI-H1915
Procedure, shortened: as §1

NCI-H1944 = tested on: NCI-H1944
Procedure, shortened: as §1

NCI-H2009 = tested on: NCI-H2009
Procedure, shortened: as §1

NCI-H2023 = tested on: NCI-H2023
Procedure, shortened: as §1

NCI-H2342 = tested on: NCI-H2342
Procedure, shortened: as §1

NCI-H2347 = tested on: NCI-H2347
Procedure, shortened: as §1

NCI-H322M = tested on: NCI-H322M
Procedure, shortened: as §1

NCI-H358 = tested on: NCI-H358
Procedure, shortened: as §1

NCI-H441 = tested on: NCI-H441
Procedure, shortened: as §1

NCI-H522 = tested on: NCI-H522
Procedure, shortened: as §1

NCI-H647 = tested on: NCI-H647
Procedure, shortened: as §1

NCI-H838 = tested on: NCI-H838
Procedure, shortened: as §1

RERF-LC-KJ = tested on: RERF-LC-KJ
Procedure, shortened: as §1

SW 1573 = tested on: SW 1573
Procedure, shortened: as §1

UMC-11 = tested on: UMC-11
Procedure, shortened: as §1

Cc1cn(-c2cc(NC(=O)c3ccc(C)c(Nc4nccc(-c5cccnc5)n4)c3)cc(C(F)(F)F)c2)cn1 [Nilotinib] + COc1cccc2cc(-c3nc([C@H]4CC[C@H](C(=O)O)CC4)n4ncnc(N)c34)[nH]c12 [OSI-027] (partner 0.5 µM)
relative viability (A-427; first compound 0.001 µM): 0.369
relative viability (A-427; first compound 0.003162 µM): 0.456
relative viability (A-427; first compound 0.01 µM): 0.44
relative viability (A-427; first compound 0.03162 µM): 0.297
relative viability (A-427; first compound 0.1 µM): 0.154
relative viability (ABC-1; first compound 0.001 µM): 0.447
relative viability (ABC-1; first compound 0.003162 µM): 0.479
relative viability (ABC-1; first compound 0.01 µM): 0.45
relative viability (ABC-1; first compound 0.03162 µM): 0.376
relative viability (ABC-1; first compound 0.1 µM): 0.237
relative viability (EPLC-272H; first compound 0.001 µM): 0.24
relative viability (EPLC-272H; first compound 0.003162 µM): 0.275
relative viability (EPLC-272H; first compound 0.01 µM): 0.325
relative viability (EPLC-272H; first compound 0.03162 µM): 0.246
relative viability (EPLC-272H; first compound 0.1 µM): 0.177
relative viability (HCC-15; first compound 0.001 µM): 0.562
relative viability (HCC-15; first compound 0.003162 µM): 0.778
relative viability (HCC-15; first compound 0.01 µM): 0.775
relative viability (HCC-15; first compound 0.03162 µM): 0.435
relative viability (HCC-15; first compound 0.1 µM): 0.306
relative viability (LC-2-ad; first compound 0.001 µM): 0.739
relative viability (LC-2-ad; first compound 0.003162 µM): 0.909
relative viability (LC-2-ad; first compound 0.01 µM): 0.795
relative viability (LC-2-ad; first compound 0.03162 µM): 0.728
relative viability (LC-2-ad; first compound 0.1 µM): 0.472
relative viability (LK-2; first compound 0.001 µM): 0.209
relative viability (LK-2; first compound 0.003162 µM): 0.174
relative viability (LK-2; first compound 0.01 µM): 0.184
relative viability (LK-2; first compound 0.03162 µM): 0.178
relative viability (LK-2; first compound 0.1 µM): 0.187
relative viability (NCI-H1734; first compound 0.001 µM): 0.57
relative viability (NCI-H1734; first compound 0.003162 µM): 0.595
relative viability (NCI-H1734; first compound 0.01 µM): 0.64
relative viability (NCI-H1734; first compound 0.03162 µM): 0.435
relative viability (NCI-H1734; first compound 0.1 µM): 0.261
relative viability (NCI-H1793; first compound 0.001 µM): 0.269
relative viability (NCI-H1793; first compound 0.003162 µM): 0.261
relative viability (NCI-H1793; first compound 0.01 µM): 0.223
relative viability (NCI-H1793; first compound 0.03162 µM): 0.188
relative viability (NCI-H1793; first compound 0.1 µM): 0.173
relative viability (NCI-H1915; first compound 0.001 µM): 0.552
relative viability (NCI-H1915; first compound 0.003162 µM): 0.659
relative viability (NCI-H1915; first compound 0.01 µM): 0.61
relative viability (NCI-H1915; first compound 0.03162 µM): 0.567
relative viability (NCI-H1915; first compound 0.1 µM): 0.338
relative viability (NCI-H1944; first compound 0.001 µM): 0.418
relative viability (NCI-H1944; first compound 0.003162 µM): 0.407
relative viability (NCI-H1944; first compound 0.01 µM): 0.367
relative viability (NCI-H1944; first compound 0.03162 µM): 0.324
relative viability (NCI-H2009; first compound 0.001 µM): 0.486
relative viability (NCI-H2009; first compound 0.003162 µM): 0.624
relative viability (NCI-H2009; first compound 0.01 µM): 0.765
relative viability (NCI-H2009; first compound 0.03162 µM): 0.556
relative viability (NCI-H2009; first compound 0.1 µM): 0.357
relative viability (NCI-H2023; first compound 0.001 µM): 0.303
relative viability (NCI-H2023; first compound 0.003162 µM): 0.3
relative viability (NCI-H2023; first compound 0.01 µM): 0.313
relative viability (NCI-H2023; first compound 0.03162 µM): 0.277
relative viability (NCI-H2023; first compound 0.1 µM): 0.195
relative viability (NCI-H2342; first compound 0.001 µM): 0.605
relative viability (NCI-H2342; first compound 0.003162 µM): 0.618
relative viability (NCI-H2342; first compound 0.01 µM): 0.558
relative viability (NCI-H2342; first compound 0.03162 µM): 0.536
relative viability (NCI-H2342; first compound 0.1 µM): 0.518
relative viability (NCI-H2347; first compound 0.001 µM): 0.512
relative viability (NCI-H2347; first compound 0.003162 µM): 0.429
relative viability (NCI-H2347; first compound 0.01 µM): 0.388
relative viability (NCI-H2347; first compound 0.03162 µM): 0.364
relative viability (NCI-H2347; first compound 0.1 µM): 0.419
relative viability (NCI-H322M; first compound 0.001 µM): 0.516
relative viability (NCI-H322M; first compound 0.003162 µM): 0.436
relative viability (NCI-H322M; first compound 0.01 µM): 0.422
relative viability (NCI-H322M; first compound 0.03162 µM): 0.384
relative viability (NCI-H322M; first compound 0.1 µM): 0.481
relative viability (NCI-H358; first compound 0.001 µM): 0.708
relative viability (NCI-H358; first compound 0.003162 µM): 1.09
relative viability (NCI-H358; first compound 0.01 µM): 0.655
relative viability (NCI-H358; first compound 0.03162 µM): 0.666
relative viability (NCI-H358; first compound 0.1 µM): 0.252
relative viability (NCI-H441; first compound 0.001 µM): 0.524
relative viability (NCI-H441; first compound 0.003162 µM): 0.743
relative viability (NCI-H441; first compound 0.01 µM): 0.52
relative viability (NCI-H441; first compound 0.03162 µM): 0.499
relative viability (NCI-H441; first compound 0.1 µM): 0.483
relative viability (NCI-H522; first compound 0.001 µM): 0.67
relative viability (NCI-H522; first compound 0.003162 µM): 0.648
relative viability (NCI-H522; first compound 0.01 µM): 0.754
relative viability (NCI-H522; first compound 0.03162 µM): 0.665
relative viability (NCI-H522; first compound 0.1 µM): 0.61
relative viability (NCI-H647; first compound 0.001 µM): 0.638
relative viability (NCI-H647; first compound 0.003162 µM): 0.749
relative viability (NCI-H647; first compound 0.01 µM): 0.762
relative viability (NCI-H647; first compound 0.03162 µM): 0.355
relative viability (NCI-H647; first compound 0.1 µM): 0.644
relative viability (NCI-H838; first compound 0.001 µM): 0.427
relative viability (NCI-H838; first compound 0.003162 µM): 0.381
relative viability (NCI-H838; first compound 0.01 µM): 0.377
relative viability (NCI-H838; first compound 0.03162 µM): 0.35
relative viability (NCI-H838; first compound 0.1 µM): 0.429
relative viability (RERF-LC-KJ; first compound 0.001 µM): 0.501
relative viability (RERF-LC-KJ; first compound 0.003162 µM): 0.586
relative viability (RERF-LC-KJ; first compound 0.01 µM): 0.53
relative viability (RERF-LC-KJ; first compound 0.03162 µM): 0.438
relative viability (RERF-LC-KJ; first compound 0.1 µM): 0.374
relative viability (SW 1573; first compound 0.001 µM): 0.566
relative viability (SW 1573; first compound 0.003162 µM): 0.751
relative viability (SW 1573; first compound 0.01 µM): 0.72
relative viability (SW 1573; first compound 0.03162 µM): 0.276
relative viability (SW 1573; first compound 0.1 µM): 0.155
relative viability (UMC-11; first compound 0.001 µM): 0.482
relative viability (UMC-11; first compound 0.003162 µM): 0.527
relative viability (UMC-11; first compound 0.01 µM): 0.432
relative viability (UMC-11; first compound 0.1 µM): 0.246
